From patent US20230295141A1, “FXR SMALL MOLECULE AGONIST, THE PREPARATION AND USE THEREOF” (Cascade Pharmaceuticals, Inc., priority 2022, published 2023)
Where two headings read alike, the source gives them in different places.

Target: T1, FXR (Homo sapiens, UniProt Q96RI1)
T1 construct: expressed in transfected cells; host or cells: HEK293T
T1 sequence (Q96RI1 212-476 isoform Q96RI1-1 limits assumed): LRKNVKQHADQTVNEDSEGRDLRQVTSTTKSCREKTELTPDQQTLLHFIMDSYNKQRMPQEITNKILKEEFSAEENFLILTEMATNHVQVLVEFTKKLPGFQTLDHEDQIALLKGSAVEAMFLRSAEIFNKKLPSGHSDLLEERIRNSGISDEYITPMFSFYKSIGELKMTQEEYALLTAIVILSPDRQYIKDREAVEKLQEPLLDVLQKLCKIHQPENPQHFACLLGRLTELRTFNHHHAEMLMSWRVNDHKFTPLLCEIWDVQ
Experiment: FXR agonistic activity by GAL4-FXR-LBD reporter gene (Dual-Glo luciferase) detection in HEK293T cells
Format: cell-based
Description: Methods for Detecting FXR Agonistic Activity of Compounds Based on Reporter Gene Activity Detection Methods: The pGAL4-FXR-LBD and pG5-Luc plasmids used in the reporter gene detection system were constructed according to conventional molecular cloning methods, including main steps: the FXR (NM_001206979.2) cDNA sequence corresponding to the amino acid sequence of FXR-LBD (212-476AA) was inserted into pGAL4 vector between BamHI and Notl restriction sites using PCR technology to obtain pGAL4-FXR-LBD; pG5-Luc and phRL-TK plasmids were donated by Shanghai Institute of Materia Medica, Chinese Academy of Sciences; the plasmid was transformed into DH5a Escherichia coli by the CaC12 method, and after further culture and amplification, the corresponding plasmid DNA was purified and obtained with a plasmid extraction kit (TIANGEN, #D107). HEK293T cells were seeded in 96-well plates at a density of 1×10^4/well one day before plasmid transfection. Cell transfection was performed according to the instructions of the transfection reagent FuGENE® HD (Promega, #E2311), including main steps: […] 0.25 uL of FuGENE® HD was added, mixed well and let stand for 5 min at room temperature; then 10 uL of this mixture was added to the cell well containing 100 uL of culture medium. […] Then the diluted compounds were added to the cell culture medium for treatment for 24 h. 2 duplicate wells were set up in total. […] After cells were treated with compounds for 24 h, detections were performed according to the instructions of the Dual-Glo® Luciferase Assay System (Promega, #E2940), including main steps: […] then 40 uL of Dual-Glo® Stop & Glo® reagent were added and shaken at room temperature for 10 min; the luminescence signal value of Renilla luciferase (Renilla-Luc) was detected by the MD i3x multifunctional microplate reader; The ratio of Firefly-Luc/Renilla-Luc was used as the activating activity of the compound on FXR, and normalized by the ratio of the solvent DMSO group. The dose- response curves were fitted with four parameters using GraphPad Prism 6.0 software, and EC50 values were calculated.

[1] = Cellular Level Activity EC50(nM) of FXR, HEK293T cells, pGAL4-FXR-LBD/pG5-Luc reporter, 24 h treatment
[2] = HEK293T cells, pGAL4-FXR-LBD/pG5-Luc reporter, 24 h treatment, read-out: Cellular Level Activity EC50(nM) of FXR
[3] = HEK293T reporter gene assay, read-out: EC50 values (FXR agonistic activity)
[4] = EC50 values (FXR agonistic activity), HEK293T reporter gene assay

Row | SMILES | EC50 [1] | EC50 [2] | other results
1 | O=c1[nH]c(-c2ccc(N3[C@@H]4CC[C@H]3C[C@@H](OCc3c(-c5c(Cl)cccc5Cl)noc3C3CC3)C4)cc2F)no1 [Control 1, reference compound] | 5 to 10 nM |  | 
2 | [2H]C([2H])(O[C@H]1C[C@H]2CC[C@@H](C1)N2c1ccc(-c2noc(=O)[nH]2)cc1)c1c(-c2c(Cl)cccc2Cl)noc1C1CC1 [Example 1] |  | < 5 nM | EC50 [3]: < 5 nM
3 | [2H]C([2H])(O[C@H]1C[C@H]2CC[C@@H](C1)N2c1ccc(-c2noc(=O)[nH]2)nc1)c1c(-c2c(Cl)cccc2Cl)noc1C1CC1 [Example 2] |  | < 5 nM | EC50 [3]: < 5 nM
4 | [2H]C([2H])(O[C@H]1C[C@H]2CC[C@@H](C1)N2c1ccc(-c2noc(=O)[nH]2)c(F)c1)c1c(-c2c(Cl)cccc2Cl)noc1C1CC1 [Example 3] | < 5 nM |  | EC50 [4]: < 5 nM; FXR agonistic / cellular level activity, in words (HEK293T reporter gene assay, comparison with LJN452 and Control 1): significantly improved activity
5 | [2H]C(O[C@H]1C[C@H]2CC[C@@H](C1)N2c1ccc(-c2noc(=O)[nH]2)c(F)c1)c1c(-c2c(Cl)cccc2Cl)noc1C1CC1 (stereo partly drawn) [Example 4] | < 5 nM |  | EC50 [4]: < 5 nM
6 | [2H]C([2H])(O[C@H]1C[C@H]2CC[C@@H](C1)N2c1ccc(-c2noc(=O)[nH]2)c(C)c1)c1c(-c2c(Cl)cccc2Cl)noc1C1CC1 [Example 5] |  | 5 to 10 nM | 
7 | [2H]C([2H])(O[C@H]1C[C@H]2CC[C@@H](C1)N2c1ccc(-c2noc(=O)[nH]2)c(OC)c1)c1c(-c2c(Cl)cccc2Cl)noc1C1CC1 [Example 6] |  | 5 to 10 nM | 
8 | [2H]C([2H])(O[C@H]1C[C@H]2CC[C@@H](C1)N2c1ccc(-c2noc(=O)[nH]2)c(C(F)(F)F)c1)c1c(-c2c(Cl)cccc2Cl)noc1C1CC1 [Example 7] |  | 5 to 10 nM | 
9 | [2H]C([2H])(O[C@H]1C[C@H]2CC[C@@H](C1)N2c1ccc(-c2noc(=O)[nH]2)c(F)c1)c1c(-c2ccccc2C(F)(F)F)noc1C1CC1 [Example 8] |  | 5 to 10 nM | 
10 | [2H]C([2H])(O[C@H]1C[C@H]2CC[C@@H](C1)N2c1ccc(-c2noc(=O)[nH]2)c(F)c1)c1c(-c2ccccc2OC(F)(F)F)noc1C1CC1 [Example 9] |  | 5 to 10 nM | 
